System: Cumulus Enclosed Oocytes (CEOs)
Experiment: Cumulus enclosed oocyte assay (meiosis activation in Hx-medium)
Type: cell-based, mice (C57BL/6J×DBA/2J F1)
Description: Activation of MI arrested oocytes can be assessed by the disappearance of the germinal vesicle (GV). The disappearance of the GV, called germinal vesicle breakdown (GVB) is followed by the extrusion of the first polar body (PB) (C. Grøndahl, J. L. Ottesen, M. Lessi, P. Faarup, A. Murray, F C Grønvald, C. Hegele-Hartung, I. Ahnfelt-Rønne, “Meiosis-activating sterol promotes resumption of meiosis in mouse oocytes cultured in vitro in contrast to related oxysterols”, Biol. Reprod., 58, 1297-1302 (1998); C. Hegele-Hartung, J. Kuhnke, M. Lessi, C. Grøndahl, J. Ottesen, H. M. Beier, S. Eisner, U. Eichenlaub-Ritter, “Nuclear and cytoplasmic maturation of mouse oocytes after treatment with synthetic meiosis-activating sterol in vitro”, Biol. Reprod., 61, 1362-1372 (1999)).
Cumulus Enclosed Oocytes (CEOs) were obtained from immature female mice (C57BL/6J×DBA/2J F1) weighing 13-16 grams, that were kept under controlled temperature (20-22° C.), light (lights on 06:00-18:00) and relative humidity (50-70%). The mice received an intra-peritoneal injection of 0.2 ml gonadotropins containing 20 IU FSH. 48 hours later the animals were killed by cervical dislocation. The ovaries were dissected out and the oocytes were isolated in Hx-medium (see below) under a stereomicroscope by manual rupture of the follicles using a pair of 27-gauge needles. Cumulus enclosed oocytes displaying an intact germinal vesicle were placed in α-minimum essential medium (α-MEM without ribonucleosides supplemented with 8 mg/ml Human Serum Albumin (HSA), 0.23 mM pyruvate, 2 mM glutamine, 100 IU/ml penicillin and 100 μg/ml streptomycin). To maintain the oocytes in the germinal vesicle stage this medium was supplemented with 3 mM hypoxanthine, designated as Hx-medium.
The CEOs (35-45 CEOs in 0.4 ml Hx-medium) were cultured in a humidified atmosphere of 5% CO2 in air for 24 hours at 37° C. One control well (identical medium with no addition of test compound) was always cultured simultaneously with test wells.
By the end of the culture period the number of CEOs with germical vesicle (GV), germinal vesicle breakdown (GVB) and polar bodies (PB), respectively, were counted. The % GVB, defined as the percentage of CEOs undergoing GVB per total number of CEOs in that well, was calculated as: % GVB=(number of GVB+number of PB/total number of CEOs)×100
The % PB was defined as the percentage of CEOs displaying one extruded polar body per total number of CEOs in that well.
For each compound two experiments were performed and the results compared to Hx-medium as a control and FF-MAS at a concentration of 10 μM.

In the case of C[C@H](CN1CCSCC1)[C@H]1CC=C2C3=C(CC[C@@]21C)[C@@]1(C)CC[C@H](O)C(C)(C)[C@@H]1CC3 [Compound IA, (20S)-20-[(thiomorpholin-4-yl)methyl]-4,4-dimethyl-5α-pregna-8,14-dien-3β-ol], the “efficiency of meiosis activation among the compounds tested” value (CEOs in the presence of Hx) is reported as “the most efficient compound tested” and the “meiosis activation in CEOs monitored by GVB and PB (FIG. 2)” value (at 1 μM (p<0.01; n=10), 3 μM (p<0.05; n=7) and 10 μM (p<0.001; n=6)) is reported as “significantly improved meiosis activation”.
